Values quoted from earlier work in EP2837390A1, “Combined Pharmaceutical Preparation for Use in Treating Neuromuscular Disorders” (Universitäts-Kinderspital beider Basel, priority 2013, dated 2015).

Tested on: mdx mice model
Details: long term supplementation for 17-months

In the case of `N=C(N)NCCC[C@H](N)C(=O)O` [L-arginine], the muscle fibrosis is listed as “increased”, the muscle function is listed as “worsened” and the skeletal deformities is listed as “increased”.
